Experimental data published in publication PMC3041857 (Journal of medicinal chemistry, 2011).

Each molecule was assayed on MDR1-MDCK cell monolayers.

Row | SMILES | Permeability (in words)
1 | COc1ccc(-c2csc(Nc3ccc(C(F)(F)F)cn3)n2)cc1OC [Compound 12, [4-(3,4-dimethoxyphenyl)-thiazol-2-yl]-(5-trifluoromethylpyridin-2-yl)-amine] | greater permeability in the absorptive direction
2 | COc1ccc(-c2csc(Nc3ccc4ccccc4n3)n2)cc1OC [Compound 18, [4-(3,4-dimethoxyphenyl)-thiazol-2-yl]-quinolin-2-yl-amine] | greater permeability in the absorptive direction
3 | Cc1ccc(Nc2nc(-c3c(-c4ccccc4)noc3C)cs2)nc1 [Compound 28, [4-(5-Methyl-3-phenylisoxazol-4-yl)-thiazol-2-yl]-(5-methylpyridin-2-yl)-amine] | greater permeability in the absorptive direction
